The NIST ThermoML archive (doi:10.1016/j.jct.2011.08.016)
± gives the expanded uncertainty stated by the source.

Experiment: xn = mol fraction of the nth substance listed
Settings: Liquid, Vibrating tube method

CCCCCCCCCC [decane] + CCCCCCCC
mass density (333.12 K, 16000 kPa, x2 = 0.2801): 707.59 ± 0.49 kg/m3
mass density (333.12 K, 17000 kPa, x2 = 0.0616): 713.28 ± 0.49 kg/m3
mass density (333.12 K, 17000 kPa, x2 = 0.2801): 708.43 ± 0.5 kg/m3
mass density (333.12 K, 18000 kPa, x2 = 0.0616): 714.06 ± 0.5 kg/m3
mass density (333.12 K, 18000 kPa, x2 = 0.2801): 709.25 ± 0.5 kg/m3
mass density (333.12 K, 19000 kPa, x2 = 0.0616): 714.88 ± 0.5 kg/m3
mass density (333.12 K, 19000 kPa, x2 = 0.2801): 710.06 ± 0.51 kg/m3
mass density (333.12 K, 20000 kPa, x2 = 0.0616): 715.65 ± 0.51 kg/m3
mass density (333.12 K, 20000 kPa, x2 = 0.2801): 710.83 ± 0.52 kg/m3
mass density (333.12 K, 21000 kPa, x2 = 0.0616): 716.44 ± 0.52 kg/m3
mass density (333.12 K, 21000 kPa, x2 = 0.2801): 711.62 ± 0.52 kg/m3
mass density (333.12 K, 22000 kPa, x2 = 0.0616): 717.15 ± 0.52 kg/m3
mass density (333.12 K, 22000 kPa, x2 = 0.2801): 712.4 ± 0.53 kg/m3
mass density (333.12 K, 23000 kPa, x2 = 0.0616): 717.89 ± 0.53 kg/m3
mass density (333.12 K, 23000 kPa, x2 = 0.2801): 713.12 ± 0.54 kg/m3
mass density (333.12 K, 24000 kPa, x2 = 0.0616): 718.59 ± 0.54 kg/m3
mass density (333.12 K, 24000 kPa, x2 = 0.2801): 713.84 ± 0.54 kg/m3
mass density (333.12 K, 25000 kPa, x2 = 0.0616): 719.3 ± 0.54 kg/m3
mass density (333.12 K, 25000 kPa, x2 = 0.2801): 714.53 ± 0.55 kg/m3
mass density (333.13 K, 1000 kPa, x2 = 0.5314): 686.94 ± 0.42 kg/m3
mass density (333.13 K, 1000 kPa, x2 = 0.9623): 672.68 ± 0.42 kg/m3
mass density (333.13 K, 2000 kPa, x2 = 0.5314): 687.94 ± 0.42 kg/m3
mass density (333.13 K, 2000 kPa, x2 = 0.9623): 673.73 ± 0.43 kg/m3
mass density (333.13 K, 3000 kPa, x2 = 0.5314): 688.95 ± 0.43 kg/m3
mass density (333.13 K, 3000 kPa, x2 = 0.9623): 674.77 ± 0.43 kg/m3
mass density (333.13 K, 4000 kPa, x2 = 0.5314): 689.94 ± 0.43 kg/m3
mass density (333.13 K, 4000 kPa, x2 = 0.9623): 675.8 ± 0.44 kg/m3
mass density (333.13 K, 5000 kPa, x2 = 0.5314): 690.92 ± 0.44 kg/m3
mass density (333.13 K, 5000 kPa, x2 = 0.9623): 676.82 ± 0.44 kg/m3
mass density (333.13 K, 6000 kPa, x2 = 0.5314): 691.92 ± 0.44 kg/m3
mass density (333.13 K, 6000 kPa, x2 = 0.9623): 677.85 ± 0.45 kg/m3
mass density (333.13 K, 7000 kPa, x2 = 0.5314): 692.89 ± 0.45 kg/m3
mass density (333.13 K, 7000 kPa, x2 = 0.9623): 678.88 ± 0.45 kg/m3
mass density (333.13 K, 8000 kPa, x2 = 0.5314): 693.87 ± 0.45 kg/m3
mass density (333.13 K, 8000 kPa, x2 = 0.9623): 679.95 ± 0.46 kg/m3
mass density (333.13 K, 9000 kPa, x2 = 0.5314): 694.82 ± 0.46 kg/m3
mass density (333.13 K, 9000 kPa, x2 = 0.9623): 680.98 ± 0.46 kg/m3
mass density (333.13 K, 10000 kPa, x2 = 0.5314): 695.75 ± 0.46 kg/m3
mass density (333.13 K, 10000 kPa, x2 = 0.9623): 681.98 ± 0.47 kg/m3
mass density (333.13 K, 10990 kPa, x2 = 0.5314): 696.68 ± 0.47 kg/m3
mass density (333.13 K, 10990 kPa, x2 = 0.9623): 682.99 ± 0.48 kg/m3
mass density (333.13 K, 12000 kPa, x2 = 0.5314): 697.6 ± 0.47 kg/m3
mass density (333.13 K, 12000 kPa, x2 = 0.9623): 683.98 ± 0.48 kg/m3
mass density (333.13 K, 13000 kPa, x2 = 0.5314): 698.5 ± 0.48 kg/m3
mass density (333.13 K, 13000 kPa, x2 = 0.9623): 684.93 ± 0.49 kg/m3
mass density (333.13 K, 14000 kPa, x2 = 0.5314): 699.4 ± 0.49 kg/m3
mass density (333.13 K, 14000 kPa, x2 = 0.9623): 685.89 ± 0.5 kg/m3
mass density (333.13 K, 15000 kPa, x2 = 0.5314): 700.28 ± 0.49 kg/m3
mass density (333.13 K, 15000 kPa, x2 = 0.9623): 686.87 ± 0.5 kg/m3
mass density (333.13 K, 16000 kPa, x2 = 0.5314): 701.15 ± 0.5 kg/m3
mass density (333.13 K, 16000 kPa, x2 = 0.9623): 687.76 ± 0.51 kg/m3
mass density (333.13 K, 17000 kPa, x2 = 0.5314): 702 ± 0.5 kg/m3
mass density (333.13 K, 17000 kPa, x2 = 0.9623): 688.67 ± 0.52 kg/m3
mass density (333.13 K, 18000 kPa, x2 = 0.5314): 702.88 ± 0.51 kg/m3
mass density (333.13 K, 18000 kPa, x2 = 0.9623): 689.57 ± 0.52 kg/m3
mass density (333.13 K, 19000 kPa, x2 = 0.5314): 703.68 ± 0.52 kg/m3
mass density (333.13 K, 19000 kPa, x2 = 0.9623): 690.49 ± 0.53 kg/m3
mass density (333.13 K, 20000 kPa, x2 = 0.5314): 704.48 ± 0.52 kg/m3
mass density (333.13 K, 20000 kPa, x2 = 0.9623): 691.35 ± 0.54 kg/m3
mass density (333.13 K, 21000 kPa, x2 = 0.5314): 705.27 ± 0.53 kg/m3
mass density (333.13 K, 21000 kPa, x2 = 0.9623): 692.18 ± 0.54 kg/m3
mass density (333.13 K, 22000 kPa, x2 = 0.5314): 706.05 ± 0.54 kg/m3
mass density (333.13 K, 22000 kPa, x2 = 0.9623): 693 ± 0.55 kg/m3
mass density (333.13 K, 23000 kPa, x2 = 0.5314): 706.81 ± 0.54 kg/m3
mass density (333.13 K, 23000 kPa, x2 = 0.9623): 693.78 ± 0.56 kg/m3
mass density (333.13 K, 24000 kPa, x2 = 0.5314): 707.53 ± 0.55 kg/m3
mass density (333.13 K, 24000 kPa, x2 = 0.9623): 694.55 ± 0.57 kg/m3
mass density (333.13 K, 25000 kPa, x2 = 0.5314): 708.26 ± 0.56 kg/m3
mass density (333.13 K, 25000 kPa, x2 = 0.9623): 695.28 ± 0.57 kg/m3
mass density (333.14 K, 1000 kPa, x2 = 0.7736): 679.32 ± 0.42 kg/m3
mass density (333.14 K, 2000 kPa, x2 = 0.7736): 680.38 ± 0.42 kg/m3
mass density (333.14 K, 3000 kPa, x2 = 0.7736): 681.42 ± 0.43 kg/m3
mass density (333.14 K, 4000 kPa, x2 = 0.7736): 682.44 ± 0.43 kg/m3
mass density (333.14 K, 5000 kPa, x2 = 0.7736): 683.46 ± 0.44 kg/m3
mass density (333.14 K, 6000 kPa, x2 = 0.7736): 684.5 ± 0.44 kg/m3
mass density (333.14 K, 7000 kPa, x2 = 0.7736): 685.49 ± 0.45 kg/m3
mass density (333.14 K, 8000 kPa, x2 = 0.7736): 686.5 ± 0.46 kg/m3
mass density (333.14 K, 9000 kPa, x2 = 0.7736): 687.47 ± 0.46 kg/m3
mass density (333.14 K, 10000 kPa, x2 = 0.7736): 688.42 ± 0.47 kg/m3
mass density (333.14 K, 10990 kPa, x2 = 0.7736): 689.42 ± 0.47 kg/m3
mass density (333.14 K, 12000 kPa, x2 = 0.7736): 690.37 ± 0.48 kg/m3
mass density (333.14 K, 13000 kPa, x2 = 0.7736): 691.27 ± 0.48 kg/m3
mass density (333.14 K, 14000 kPa, x2 = 0.7736): 692.21 ± 0.49 kg/m3
mass density (333.14 K, 15000 kPa, x2 = 0.7736): 693.1 ± 0.5 kg/m3
mass density (333.14 K, 16000 kPa, x2 = 0.7736): 694.02 ± 0.5 kg/m3
mass density (333.14 K, 17000 kPa, x2 = 0.7736): 694.9 ± 0.51 kg/m3
mass density (333.14 K, 18000 kPa, x2 = 0.7736): 695.77 ± 0.52 kg/m3
mass density (333.14 K, 19000 kPa, x2 = 0.7736): 696.62 ± 0.52 kg/m3
mass density (333.14 K, 20000 kPa, x2 = 0.7736): 697.46 ± 0.53 kg/m3
mass density (333.14 K, 21000 kPa, x2 = 0.7736): 698.28 ± 0.54 kg/m3
mass density (333.14 K, 22000 kPa, x2 = 0.7736): 699.09 ± 0.54 kg/m3
mass density (333.14 K, 23000 kPa, x2 = 0.7736): 699.86 ± 0.55 kg/m3
mass density (333.14 K, 24000 kPa, x2 = 0.7736): 700.61 ± 0.56 kg/m3
mass density (333.14 K, 25000 kPa, x2 = 0.7736): 701.34 ± 0.57 kg/m3
